For 17 molecules, TGI and GI50 results are on record in PubChem BioAssay (NCI).

Test systems include HOP-18 NSCLC; DMS 114 small cell lung; SN12K1 renal; M19-MEL melanoma; P388/ADR leukemia; DLD-1 colon; SNB-78 CNS; XF 498 CNS; DMS 273 small cell lung; LXFL 529 NSCLC; P388 leukemia; RXF-631 renal.
Holding throughout (test): NCI tumour cell line growth inhibition, 48 h

Several values for one entry are separate records, joined by “and”; a condition that tells them apart may be missing. Equal values may be shown once.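 The compound was tested at five concentrations on cells cultured in 96-well plates, with a 48-hour exposure period. GI50 = concentration required for 50% inhibition of growth. TGI is the concentration that stops growth completely.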 Some results are limits rather than exact numbers.

For the molecule `C=C1C(O)C2(O)OCC34C(CC5C(C)=CC(=O)C(O)C5(C)C23)OC(=O)C(OC(=O)C/C=C(\C)CCCCC)C14` (configuration not stated), the TGI in the experiment with HOP-18 NSCLC is 1.1 µM; in the experiment with DMS 114 small cell lung, 0.0161 µM; in the experiment on SN12K1 renal, 0.016 µM; in the experiment on M19-MEL melanoma it was 0.0173 µM; in the experiment with P388/ADR leukemia, 0.454 µM; with DLD-1 colon, 0.159 µM. Also, the TGI in the experiment on SNB-78 CNS worked out at 0.0373 µM; in the experiment on XF 498 CNS it was 0.0232 µM.
For the molecule `NC(=O)C(=O)N/N=C1/c2ccccc2CC1C1(O)C(=O)Nc2c(Cl)cc(Cl)cc21` (configuration not stated), the TGI in the experiment on HOP-18 NSCLC, in the experiment on DMS 114 small cell lung, in the experiment on DMS 273 small cell lung, in the experiment on M19-MEL melanoma, in the experiment on DLD-1 colon and in the experiment on SNB-78 CNS was more than 100 µM throughout. In addition, the TGI in the experiment with XF 498 CNS was more than 100 µM.
`COc1ccc(-c2cc(=O)c3cc4c(cc3[nH]2)OCO4)c(OC)c1OC`: the TGI in the experiment on HOP-18 NSCLC, in the experiment with DMS 114 small cell lung, in the experiment with DMS 273 small cell lung, with M19-MEL melanoma, in the experiment with LXFL 529 NSCLC and in the experiment with DLD-1 colon was more than 100 µM each time. In addition, the TGI in the experiment with SNB-78 CNS and in the experiment with XF 498 CNS was more than 100 µM in each case.
As to `COc1cc(/C=C/C(=O)O)ccc1C(=O)O/C=C/c1ccccc1`, the TGI in the experiment on HOP-18 NSCLC is more than 100 µM; in the experiment on DMS 114 small cell lung, more than 100 µM; in the experiment on DMS 273 small cell lung, more than 100 µM; with SN12K1 renal, more than 100 µM; in the experiment with M19-MEL melanoma, more than 100 µM; with P388/ADR leukemia it was 68.9 µM. The TGI with P388 leukemia, with DLD-1 colon, with SNB-78 CNS and in the experiment with XF 498 CNS was more than 100 µM throughout.
Turning to `CCN(CC)CCNc1ccc2nnn3c4ccc(OC)cc4c(=O)c1c23`, the TGI is 16.3 µM in the experiment on RXF-631 renal; 23.2 µM in the experiment with HOP-18 NSCLC; 21.2 µM in the experiment on DMS 114 small cell lung; 26.3 µM in the experiment with M19-MEL melanoma; 21.4 µM in the experiment with LXFL 529 NSCLC; 22 µM with DLD-1 colon. Moreover, the TGI in the experiment on SNB-78 CNS came to 25.8 µM.
As to `COc1cc(/C=C2\C(=O)N(C(=O)Cc3ccccc3)N=C2C)ccc1O`, the TGI with HOP-18 NSCLC, in the experiment on DMS 114 small cell lung, in the experiment with DMS 273 small cell lung, in the experiment with M19-MEL melanoma, with DLD-1 colon and in the experiment on SNB-78 CNS was more than 100 µM throughout. Also, in the experiment on XF 498 CNS, the TGI is more than 100 µM.
For the molecule `O=C(CP(=O)(O)O)c1cccs1`, the TGI with HOP-18 NSCLC, in the experiment on DMS 114 small cell lung, in the experiment with DMS 273 small cell lung, with M19-MEL melanoma, in the experiment on LXFL 529 NSCLC and in the experiment on DLD-1 colon was more than 100 µM throughout. For the same molecule, in the experiment on SNB-78 CNS, the TGI is more than 100 µM.
For `CCC(C(=O)O)c1ccc(OCc2ccccc2)cc1` (configuration not stated), the TGI in the experiment with DMS 114 small cell lung, with DMS 273 small cell lung, with LXFL 529 NSCLC, in the experiment on DLD-1 colon, in the experiment on SNB-78 CNS and with XF 498 CNS was more than 100 µM in each case.
As to `COCOc1ccc(OC)cc1`, the TGI with HOP-18 NSCLC, in the experiment with DMS 273 small cell lung, in the experiment on SN12K1 renal, with M19-MEL melanoma, in the experiment with P388/ADR leukemia and in the experiment with P388 leukemia was more than 100 µM throughout. Also, the TGI in the experiment with DLD-1 colon, in the experiment with SNB-78 CNS and in the experiment on XF 498 CNS was more than 100 µM in each case.
Regarding `CSC1CC2C(CC1(C)O)C2(C)C` (configuration not stated), the GI50 with DMS 114 small cell lung was 15.7 µM and > 100 µM; in the experiment on XF 498 CNS, 16.4 µM and > 100 µM. Also, the TGI in the experiment with DMS 114 small cell lung was 72.1 µM and > 100 µM; in the experiment with DMS 273 small cell lung, more than 100 µM; in the experiment with M19-MEL melanoma, more than 100 µM; in the experiment on LXFL 529 NSCLC it was more than 100 µM; in the experiment with DLD-1 colon, more than 100 µM; with SNB-78 CNS, more than 100 µM. Moreover, the TGI in the experiment on XF 498 CNS is 79.1 µM and > 100 µM.
Consider `CCC12C[N+]3([O-])CCc4c([nH]c5ccccc45)C(C(=O)OC)(c4cc5c(cc4OC)N(C)C4C(O)(C(=O)OC)C(OC(C)=O)C6(CC)C=CCN7CCC54C76)CC(C3)C1O2` (configuration not stated), for which the TGI with HOP-18 NSCLC was 47.5 µM; in the experiment with DMS 114 small cell lung, 4.28 µM; in the experiment on DMS 273 small cell lung, 12.2 µM; in the experiment with M19-MEL melanoma, 16 µM; in the experiment on LXFL 529 NSCLC, 24.6 µM; in the experiment on DLD-1 colon, 30.9 µM. Also, the TGI is 4.65 µM in the experiment on SNB-78 CNS and 15.3 µM in the experiment with XF 498 CNS.
In the case of `C=C1C(=O)OC2/C=C(\CO)C(OC(C)=O)CC(O)/C(C)=C/C(OC(=O)C(C)CC)C12` (configuration not stated), the TGI in the experiment on RXF-631 renal was more than 100 µM; in the experiment with HOP-18 NSCLC, 38.5 µM; in the experiment with DMS 114 small cell lung, more than 56.8 µM; with DMS 273 small cell lung, 38 µM; in the experiment with M19-MEL melanoma, 33 µM; in the experiment on LXFL 529 NSCLC it was 28.3 µM. Also, the TGI with DLD-1 colon worked out at 26.5 µM; with SNB-78 CNS, 42.9 µM; in the experiment with XF 498 CNS it was 29.7 µM.
On to `CN(C)C(CN)CC1=C(CC(CN)N(C)C)CCC1` (configuration not stated), for which the TGI with HOP-18 NSCLC, with DMS 114 small cell lung, in the experiment on DMS 273 small cell lung, with SN12K1 renal, with M19-MEL melanoma and in the experiment on P388/ADR leukemia was more than 100 µM each time. Moreover, the TGI with P388 leukemia, in the experiment with DLD-1 colon, in the experiment on SNB-78 CNS and with XF 498 CNS was more than 100 µM in each case.
As to `CC(C)(C)C1=Cc2cc3cc(C(C)(C)C)[nH]c(=O)c3cc2S(=O)(=O)N1`, the TGI was 44.4 µM with DMS 114 small cell lung; 40.7 µM with M19-MEL melanoma; 76.7 µM with LXFL 529 NSCLC; more than 100 µM in the experiment on DLD-1 colon; more than 100 µM with SNB-78 CNS.
For `C/C(=N/NC(N)=S)c1ccc2ccccc2c1`, the TGI is 49.9 µM with DMS 114 small cell lung; 90.9 µM with DMS 273 small cell lung; more than 100 µM in the experiment on M19-MEL melanoma; more than 100 µM in the experiment on LXFL 529 NSCLC; more than 100 µM in the experiment with DLD-1 colon; more than 100 µM with SNB-78 CNS. For the same molecule, the TGI in the experiment with XF 498 CNS was more than 100 µM.
Take `C/C(=C\c1ccccc1)C(=O)CCN1CCOCC1`: the TGI in the experiment on HOP-18 NSCLC is 32.3 µM; with DMS 114 small cell lung it was 35.2 µM; in the experiment on DMS 273 small cell lung it was 35.3 µM; in the experiment on SN12K1 renal, 32.8 µM; in the experiment with M19-MEL melanoma it was 33.8 µM; in the experiment with P388/ADR leukemia it was more than 55.1 µM. In addition, the TGI came to 36.1 µM in the experiment on P388 leukemia, 33.4 µM in the experiment with DLD-1 colon, 35.4 µM in the experiment with SNB-78 CNS and 33.3 µM in the experiment on XF 498 CNS.
As to `CCOC(=O)C1=C(C(C)=O)CSC(c2ccccc2)=N1`, the TGI in the experiment with HOP-18 NSCLC, in the experiment with DMS 114 small cell lung, with DMS 273 small cell lung, with SN12K1 renal, in the experiment on M19-MEL melanoma and in the experiment on P388/ADR leukemia was more than 100 µM each time. Further, the TGI with P388 leukemia, in the experiment with DLD-1 colon, in the experiment with SNB-78 CNS and in the experiment on XF 498 CNS was more than 100 µM throughout.
